Experimental data taken from paper PMC12032720, “Pharmacological assessment of the extract and a novel compound of Bacillus velezensis DM derived from the rhizosphere of Datura metel L. with microbial molecular screening” (BMC Complementary Medicine and Therapies, 2025).
Converted amounts (≈) assume the structure as drawn. “And” between values parts separate entries of the source, which are not always exact repeats. Equal entries are not always repeated. Where two headings read alike, the source gives them in different places.

Experiments:
Antioxidant ABTS assay = conditions: mean ± SD
Procedure: Antioxidant ABTS assay: the capacity of B. velezensis DM extract to scavenge ABTS radical cations was assessed compared to Quercetin at a range of concentrations, including 300, 150, 75, 25, and 10 µg/ mL [38].
(§1) IC50 was calculated by the Graph Pad Prism (version 8, San Diego, CA, USA) (n = 3 replicates). Data are presented as mean ± SD.

Antioxidant DPPH assay = conditions: mean ± SD
Procedure: Antioxidant DPPH assay: To inspect the antioxidant potential of B. velezensis DM extract, a methodology reported by Nahar et al. was used compared to Trolox. IC50 was calculated by the Graph Pad Prism (version 8, San Diego, CA, USA) (n = 3 replicates). Data are presented as mean ± SD.

HCT-116 = experiment: MTT cytotoxicity on colon cancer cell line HCT-116; format: cell-based; conditions: Homo sapiens, mean ± SD
Procedure: (§2) Diverse human cancer cell lines: liver cancer cells (HepG2), colon cancer cell line (HCT-116), and breast cancer cell line (MCF-7) were brought from VACSERA Tissue Culture Unit (Giza, Egypt). RPMI-1640 media enhanced with 10% fetal bovine serum and […] gentamycin were employed to culture the cells. The cells were incubated at 37 °C with 5% CO2. To determine the cytotoxic activity, cells were treated with various doses (0–100 µg/ mL) of B. velezensis DM extract or Doxorubicin, and their viability compared to untreated controls was assessed. Compound (1) cytotoxic potential was evaluated against HCT-116 as well as normal epithelial cells (THLE2) to calculate the selectivity index (SI) as formerly depicted.
as §1

THLE-2 normal cell line = experiment: Cytotoxicity on normal epithelial cells THLE-2 (selectivity index); format: cell-based; conditions: for IC50: Homo sapiens, THLE-2, normal cell line, mean ± SD; for SI (selectivity index): THLE-2 versus HCT-116
Procedure: as §2, §1

[1] = compound (1) experiment, read-out: IC50 HCT-116 (Table 4)

Row | ABTS (IC50) (Antioxidant ABTS assay) | DPPH (IC50) (Antioxidant DPPH assay) | SMILES | IC50 (HCT-116; [1]) | IC50 (THLE-2 normal cell line) | SI (selectivity index) (THLE-2 normal cell line) | IC50 (HCT-116; MTT, 0–100 µg/mL, n = 3, read-out: IC50 HCT-116 (Table 3))
1 | 42.13 ± 1.92 µg/mL |  | O=c1c(O)c(-c2ccc(O)c(O)c2)oc2cc(O)cc(O)c12 [Quercetin] |  |  |  | 
2 |  | 113.31 ± 4.2 µg/mL | Cc1c(C)c2c(c(C)c1O)CCC(C)(C(=O)O)O2 (stereo not drawn) [Trolox] |  |  |  | 
3 |  |  | CNC=C(CC(O)C(O)CO)NC (stereo not drawn) [Compound (1), 5,6-di(methylamino)hex-5-ene-1,2,3-triol] | 27 ± 1.85 µg/mL (≈ 142 µM) | 68.7 ± 3.34 µg/mL (≈ 361 µM) | 2.5 and 2.54 | 
4 |  |  | COc1cccc2c1C(=O)c1c(O)c3c(c(O)c1C2=O)C[C@@](O)(C(=O)CO)C[C@@H]3O[C@H]1C[C@H](N)[C@H](O)[C@H](C)O1 [Doxorubicin (DOX), Doxorubicin] | 11.7 ± 0.4 µg/mL (≈ 21.5 µM) | 17.4 ± 1.25 µg/mL (≈ 32.1 µM) | 1.49 | 4.82 ± 0.18 µg/mL (≈ 8.87 µM)
